Test results: patent publication US5843889A, “Glycopeptide antibiotic derivatives” (Eli Lilly and Company, priority 1997, dated 1998)
Converted amounts (≈) assume the structure as drawn.

Columns and labels:
Assay in all cases: MIC, standard broth micro-dilution assay
Type in all cases: cell-based
Entercoccus faecalis 276 = test system: Entercoccus faecalis 276
Protocol: (§1) The formula I compounds have in vitro and in vivo activity against Gram-positive pathogenic bacteria. The MIC's were determined using a standard broth micro-dilution assay.

[1] = test system: Entercoccus gallinarum 245
Protocol: as §1

[2] = test system: Entercoccus faecalis 2041
Protocol: as §1

MIC (Entercoccus faecalis 276)	MIC [1]	MIC [2]	Structure (SMILES)
2 µg/mL (≈ 1.12 µM)	2 µg/mL (≈ 1.12 µM)		CCc1ccc(-c2ccc(CNC3(C)CC(OC4C(Oc5c6cc7cc5Oc5ccc(cc5Cl)C(OC5CC(C)(N)C(O)C(C)O5)C5NC(=O)C(NC(=O)C7NC(=O)C(CC(N)=O)NC(=O)C(NC(=O)C(CC(C)C)NC)C(O)c7ccc(c(Cl)c7)O6)c6ccc(O)c(c6)-c6c(O)cc(O)cc6C(C(=O)O)NC5=O)OC(CO)C(O)C4O)OC(C)C3O)cc2)cc1 (stereo not shown) [Compound 90, 4-[4-ethylphenyl]benzyl]
0.26 µg/mL (≈ 0.148 µM)			CNC(CC(C)C)C(=O)NC1C(=O)NC(CC(N)=O)C(=O)NC2C(=O)NC3C(=O)NC(C(=O)NC(C(=O)O)c4cc(O)cc(O)c4-c4cc3ccc4O)C(OC3CC(C)(N)C(O)C(C)O3)c3ccc(c(Cl)c3)Oc3cc2cc(c3OC2OC(CO)C(O)C(O)C2OC2CC(C)(NCc3c(OC)ccc4ccccc34)C(O)C(C)O2)Oc2ccc(cc2Cl)C1O (stereo not shown) [Compound 9, 2-methoxy-1-naphthylmethyl]
0.5 µg/mL (≈ 0.281 µM)	2 µg/mL (≈ 1.12 µM)		CNC(CC(C)C)C(=O)NC1C(=O)NC(CC(N)=O)C(=O)NC2C(=O)NC3C(=O)NC(C(=O)NC(C(=O)O)c4cc(O)cc(O)c4-c4cc3ccc4O)C(OC3CC(C)(N)C(O)C(C)O3)c3ccc(c(Cl)c3)Oc3cc2cc(c3OC2OC(CO)C(O)C(O)C2OC2CC(C)(NCc3ccc(N4CCCCC4C)cc3)C(O)C(C)O2)Oc2ccc(cc2Cl)C1O (stereo not shown) [Compound 135, 4-[2-methyl-1-piperidino]benzyl]
0.5 µg/mL (≈ 0.28 µM)	8 µg/mL (≈ 4.47 µM)		CNC(CC(C)C)C(=O)NC1C(=O)NC(CC(N)=O)C(=O)NC2C(=O)NC3C(=O)NC(C(=O)NC(C(=O)O)c4cc(O)cc(O)c4-c4cc3ccc4O)C(OC3CC(C)(N)C(O)C(C)O3)c3ccc(c(Cl)c3)Oc3cc2cc(c3OC2OC(CO)C(O)C(O)C2OC2CC(C)(NCCc3ccc(Oc4ccccc4)cc3)C(O)C(C)O2)Oc2ccc(cc2Cl)C1O (stereo not shown) [Compound 63, 4-phenoxyphenethyl]
0.5 µg/mL (≈ 0.28 µM)	0.25 µg/mL (≈ 0.14 µM)		CNC(CC(C)C)C(=O)NC1C(=O)NC(CC(N)=O)C(=O)NC2C(=O)NC3C(=O)NC(C(=O)NC(C(=O)O)c4cc(O)cc(O)c4-c4cc3ccc4O)C(OC3CC(C)(N)C(O)C(C)O3)c3ccc(c(Cl)c3)Oc3cc2cc(c3OC2OC(CO)C(O)C(O)C2OC2CC(C)(NCc3c4ccccc4cc4ccccc34)C(O)C(C)O2)Oc2ccc(cc2Cl)C1O (stereo not shown) [Compound 13, 9-anthranylmethyl]
0.5 µg/mL (≈ 0.274 µM)			CNC(CC(C)C)C(=O)NC1C(=O)NC(CC(N)=O)C(=O)NC2C(=O)NC3C(=O)NC(C(=O)NC(C(=O)O)c4cc(O)cc(O)c4-c4cc3ccc4O)C(OC3CC(C)(N)C(O)C(C)O3)c3ccc(c(Cl)c3)Oc3cc2cc(c3OC2OC(CO)C(O)C(O)C2OC2CC(C)(NCc3ccc(-c4ccc(C(F)(F)F)cc4)cc3)C(O)C(C)O2)Oc2ccc(cc2Cl)C1O (stereo not shown) [Compound 216, 4-[4-trifluromethylphenyl]benzyl]
1 µg/mL (≈ 0.539 µM)	2 µg/mL (≈ 1.08 µM)		CNC(CC(C)C)C(=O)NC1C(=O)NC(CC(N)=O)C(=O)NC2C(=O)NC3C(=O)NC(C(=O)NC(C(=O)O)c4cc(O)cc(O)c4-c4cc3ccc4O)C(OC3CC(C)(N)C(O)C(C)O3)c3ccc(c(Cl)c3)Oc3cc2cc(c3OC2OC(CO)C(O)C(O)C2OC2CC(C)(NCc3ccc(Cl)c(C(=O)c4ccccc4)c3Cl)C(O)C(C)O2)Oc2ccc(cc2Cl)C1O (stereo not shown) [Compound 133, 3-benzoyl-2,4-dichlorobenzyl]
2 µg/mL (≈ 1.12 µM)	2 µg/mL (≈ 1.12 µM)		CNC(CC(C)C)C(=O)NC1C(=O)NC(CC(N)=O)C(=O)NC2C(=O)NC3C(=O)NC(C(=O)NC(C(=O)O)c4cc(O)cc(O)c4-c4cc3ccc4O)C(OC3CC(C)(N)C(O)C(C)O3)c3ccc(c(Cl)c3)Oc3cc2cc(c3OC2OC(CO)C(O)C(O)C2OC2CC(C)(NCCCCCCCCc3ccccc3)C(O)C(C)O2)Oc2ccc(cc2Cl)C1O (stereo not shown) [Compound 176, 8-phenyloctyl]
1 µg/mL (≈ 0.571 µM)			CNC(CC(C)C)C(=O)NC1C(=O)NC(CC(N)=O)C(=O)NC2C(=O)NC3C(=O)NC(C(=O)NC(C(=O)O)c4cc(O)cc(O)c4-c4cc3ccc4O)C(OC3CC(C)(N)C(O)C(C)O3)c3ccc(c(Cl)c3)Oc3cc2cc(c3OC2OC(CO)C(O)C(O)C2OC2CC(C)(NCc3ccc(C(F)(F)F)cc3)C(O)C(C)O2)Oc2ccc(cc2Cl)C1O (stereo not shown) [Compound 37, 4-trifluoromethylbenzyl]
0.5 µg/mL (≈ 0.288 µM)	0.5 µg/mL (≈ 0.288 µM)		CNC(CC(C)C)C(=O)NC1C(=O)NC(CC(N)=O)C(=O)NC2C(=O)NC3C(=O)NC(C(=O)NC(C(=O)O)c4cc(O)cc(O)c4-c4cc3ccc4O)C(OC3CC(C)(N)C(O)C(C)O3)c3ccc(c(Cl)c3)Oc3cc2cc(c3OC2OC(CO)C(O)C(O)C2OC2CC(C)(NCc3ccnc4ccccc34)C(O)C(C)O2)Oc2ccc(cc2Cl)C1O (stereo not shown) [Compound 27, 4-quinolylmethyl]
≤ 0.06 µg/mL			CNC(CC(C)C)C(=O)NC1C(=O)NC(CC(N)=O)C(=O)NC2C(=O)NC3C(=O)NC(C(=O)NC(C(=O)O)c4cc(O)cc(O)c4-c4cc3ccc4O)C(OC3CC(C)(N)C(O)C(C)O3)c3ccc(c(Cl)c3)Oc3cc2cc(c3OC2OC(CO)C(O)C(O)C2OC2CC(C)(NCc3ccncc3)C(O)C(C)O2)Oc2ccc(cc2Cl)C1O (stereo not shown) [Compound 26, 4-pyridylmethyl]
0.25 µg/mL (≈ 0.138 µM)	1 µg/mL (≈ 0.552 µM)		CCCCCCCCC#CCCCCCCNC1(C)CC(OC2C(Oc3c4cc5cc3Oc3ccc(cc3Cl)C(OC3CC(C)(N)C(O)C(C)O3)C3NC(=O)C(NC(=O)C5NC(=O)C(CC(N)=O)NC(=O)C(NC(=O)C(CC(C)C)NC)C(O)c5ccc(c(Cl)c5)O4)c4ccc(O)c(c4)-c4c(O)cc(O)cc4C(C(=O)O)NC3=O)OC(CO)C(O)C2O)OC(C)C1O (stereo not shown) [Compound 207, 7-hexadecynyl]
0.5 µg/mL (≈ 0.283 µM)			CNC(CC(C)C)C(=O)NC1C(=O)NC(CC(N)=O)C(=O)NC2C(=O)NC3C(=O)NC(C(=O)NC(C(=O)O)c4cc(O)cc(O)c4-c4cc3ccc4O)C(OC3CC(C)(N)C(O)C(C)O3)c3ccc(c(Cl)c3)Oc3cc2cc(c3OC2OC(CO)C(O)C(O)C2OC2CC(C)(NCc3ccc(OCCCC#N)cc3)C(O)C(C)O2)Oc2ccc(cc2Cl)C1O (stereo not shown) [Compound 55, 4-[3-cyanopropoxy]benzyl]
8 µg/mL (≈ 4.26 µM)			CC#CCCCCCCCCCCOc1ccc(CNC2(C)CC(OC3C(Oc4c5cc6cc4Oc4ccc(cc4Cl)C(OC4CC(C)(N)C(O)C(C)O4)C4NC(=O)C(NC(=O)C6NC(=O)C(CC(N)=O)NC(=O)C(NC(=O)C(CC(C)C)NC)C(O)c6ccc(c(Cl)c6)O5)c5ccc(O)c(c5)-c5c(O)cc(O)cc5C(C(=O)O)NC4=O)OC(CO)C(O)C3O)OC(C)C2O)cc1 (stereo not shown) [Compound 233, 4-[11-tridecynyloxy]benzyl]
	0.5 µg/mL (≈ 0.296 µM)	≤ 0.06 µg/mL	CNC(CC(C)C)C(=O)NC1C(=O)NC(CC(N)=O)C(=O)NC2C(=O)NC3C(=O)NC(C(=O)NC(C(=O)O)c4cc(O)cc(O)c4-c4cc3ccc4O)C(OC3CC(C)(N)C(O)C(C)O3)c3ccc(cc3)Oc3cc2cc(c3OC2OC(CO)C(O)C(O)C2OC2CC(C)(NCc3ccc(-c4ccccc4)cc3)C(O)C(C)O2)Oc2ccc(cc2)C1O (stereo not shown) [Compound 183, 4-phenylbenzyl]
	8 µg/mL (≈ 4.67 µM)	≤ 0.06 µg/mL	CNC(CC(C)C)C(=O)NC1C(=O)NC(CC(N)=O)C(=O)NC2C(=O)NC3C(=O)NC(C(=O)NC(C(=O)O)c4cc(O)cc(O)c4-c4cc3ccc4O)C(OC3CC(C)(N)C(O)C(C)O3)c3ccc(c(Cl)c3)Oc3cc2cc(c3OC2OC(CO)C(O)C(O)C2OC2CC(C)(NCC3CCC4CCCC43)C(O)C(C)O2)Oc2ccc(cc2Cl)C1O (stereo not drawn) [Compound 190, cis-bicyclo[3.3.0]octane-2-methyl]
	1 µg/mL (≈ 0.572 µM)	≤ 0.06 µg/mL	CNC(CC(C)C)C(=O)NC1C(=O)NC(CC(N)=O)C(=O)NC2C(=O)NC3C(=O)NC(C(=O)NC(C(=O)O)c4cc(O)cc(O)c4-c4cc3ccc4O)C(OC3CC(C)(N)C(O)C(C)O3)c3ccc(c(Cl)c3)Oc3cc2cc(c3OC2OC(CO)C(O)C(O)C2OC2CC(C)(NCCCCC#Cc3ccccc3)C(O)C(C)O2)Oc2ccc(cc2Cl)C1O (stereo not shown) [Compound 235, 6-phenyl-5-hexynyl]
	0.5 µg/mL (≈ 0.278 µM)	0.5 µg/mL (≈ 0.278 µM)	CCN(CC)CCOc1ccc(CNC2(C)CC(OC3C(Oc4c5cc6cc4Oc4ccc(cc4Cl)C(OC4CC(C)(N)C(O)C(C)O4)C4NC(=O)C(NC(=O)C6NC(=O)C(CC(N)=O)NC(=O)C(NC(=O)C(CC(C)C)NC)C(O)c6ccc(c(Cl)c6)O5)c5ccc(O)c(c5)-c5c(O)cc(O)cc5C(C(=O)O)NC4=O)OC(CO)C(O)C3O)OC(C)C2O)cc1 (stereo not shown) [Compound 83, 4-[2-[N,N-diethylamino]ethoxy]benzyl]
	≤ 0.06 µg/mL	≤ 0.06 µg/mL	CNC(CC(C)C)C(=O)NC1C(=O)NC(CC(N)=O)C(=O)NC2C(=O)NC3C(=O)NC(C(=O)NC(C(=O)O)c4cc(O)cc(O)c4-c4cc3ccc4O)C(OC3CC(C)(N)C(O)C(C)O3)c3ccc(c(Cl)c3)Oc3cc2cc(c3OC2OC(CO)C(O)C(O)C2OC2CC(C)(NCc3ccc(I)s3)C(O)C(C)O2)Oc2ccc(cc2Cl)C1O (stereo not shown) [Compound 74, 5-iodo-2-thienylmethyl]
2 µg/mL (≈ 1.1 µM)			CNC(CC(C)C)C(=O)NC1C(=O)NC(CC(N)=O)C(=O)NC2C(=O)NC3C(=O)NC(C(=O)NC(C(=O)O)c4cc(O)cc(O)c4-c4cc3ccc4O)C(OC3CC(C)(N)C(O)C(C)O3)c3ccc(c(Cl)c3)Oc3cc2cc(c3OC2OC(CO)C(O)C(O)C2OC2CC(C)(NCc3ccc(-c4ccc(OC)c(OC)c4)cc3)C(O)C(C)O2)Oc2ccc(cc2Cl)C1O (stereo not shown) [Compound 215, 4-[3,4-dimethoxyphenyl]benzyl]

Structure (SMILES)	MIC (Entercoccus faecalis 276)	MIC [1]	MIC [2]
CNC(CC(C)C)C(=O)NC1C(=O)NC(CC(N)=O)C(=O)NC2C(=O)NC3C(=O)NC(C(=O)NC(C(=O)O)c4cc(O)cc(O)c4-c4cc3ccc4O)C(OC3CC(C)(N)C(O)C(C)O3)c3ccc(c(Cl)c3)Oc3cc2cc(c3OC2OC(CO)C(O)C(O)C2OC2CC(C)(NCc3ccc(OCCOC(C)(C)C)cc3)C(O)C(C)O2)Oc2ccc(cc2Cl)C1O (stereo not shown) [Compound 154, 4-[2-t-butoxyethoxy]benzyl]	0.5 µg/mL (≈ 0.278 µM)	4 µg/mL (≈ 2.22 µM)	
CNC(CC(C)C)C(=O)NC1C(=O)NC(CC(N)=O)C(=O)NC2C(=O)NC3C(=O)NC(C(=O)NC(C(=O)O)c4cc(O)cc(O)c4-c4cc3ccc4O)C(OC3CC(C)(N)C(O)C(C)O3)c3ccc(c(Cl)c3)Oc3cc2cc(c3OC2OC(CO)C(O)C(O)C2OC2CC(C)(NCC3CCCCC3)C(O)C(C)O2)Oc2ccc(cc2Cl)C1O (stereo not shown) [Compound 161, cyclohexylmethyl]		8 µg/mL (≈ 4.74 µM)	≤ 0.06 µg/mL
